This is an account of results in patent US20230127046A1, “G9a INHIBITOR” (RIKEN, priority 2019, published 2023).

Where two headings read alike, the source gives them in different places. A value given as a limit tells only on which side of the number the result lay.

Broadly, the IC50 is the midpoint of a concentration-inhibition curve.

The target of this assay is T1, recombinant human G9a protein (Homo sapiens, UniProt Q96KQ7).
T1 construct: purchased BPS Bioscience Inc. #51001
T1 sequence (Q96KQ7 785-1210 limits assumed): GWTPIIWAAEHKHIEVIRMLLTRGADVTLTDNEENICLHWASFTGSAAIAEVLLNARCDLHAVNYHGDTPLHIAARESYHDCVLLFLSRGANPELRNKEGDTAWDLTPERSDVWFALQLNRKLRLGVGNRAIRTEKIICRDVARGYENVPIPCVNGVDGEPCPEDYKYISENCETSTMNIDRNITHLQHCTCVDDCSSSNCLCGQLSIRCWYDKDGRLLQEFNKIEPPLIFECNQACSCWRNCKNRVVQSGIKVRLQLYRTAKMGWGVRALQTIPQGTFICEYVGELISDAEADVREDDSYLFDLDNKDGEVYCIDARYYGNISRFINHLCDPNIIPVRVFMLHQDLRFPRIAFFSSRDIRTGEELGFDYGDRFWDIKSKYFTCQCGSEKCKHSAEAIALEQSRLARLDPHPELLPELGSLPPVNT
Description: G9a inhibitory activity test (ALPHA). It counts as biochemical. In outline: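 Human G9a (0.05 to 0.1 nM) in Tris pH 9.0 buffer preincubated with compound 10 min, then biotinylated histone H3 (1-21) peptide and SAM mixed 1:1 from 500 nM and 150 μM solutions, 1 h at room temperature. H3K9me2 detected by AlphaLISA acceptor/streptavidin donor beads; IC50 from percent inhibition relative to no-compound and no-enzyme controls.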

[1] abbreviates: read-out: Inhibitory activity (G9a IC50).
Setting [2] is: biotinylated histone H3 peptide (1-21), SAM, read-out: Inhibitory activity (G9a IC50 value).

Turning to `CCCC[C@H](NC(=O)c1[nH]c2c(c1C)C(=O)CC(C)(C)C2)c1nc2ccc(OCCCN(C)C)cc2[nH]1` [Example 34-1, (S)-N-(1-(6-(3-(dimethylamino)propyloxy)-1H-benzo[d]imidazol-2-yl)pentyl)-3,6,6-trimethyl-4-oxo-4,5,6,7-tetrahydro-1H-indole-2-carboxamide], the IC50 under setting [1] is at least 0.2 µM.
With `CCCCC(NC(=O)c1[nH]c2c(c1C)C(=O)CC(C)(C)C2)C(=O)Nc1ccccc1COC` (centres unmarked) [Example 1-22], under setting [2], the IC50 is at least 0.2 µM.
In the case of `CCCC[C@H](NC(=O)c1[nH]c2c(c1C)C(=O)CC(C)(C)C2)C(=O)N1CCc2c(OCCN(C)C)cccc21` [Example 6-102], the IC50 under setting [1] was at least 0.2 µM.
With `Cc1c(C(=O)NC(CCC2CC2)C(=O)N2CCc3c(OC4CCN(C)CC4)cccc32)[nH]c2c1C(=O)CC(C)(C)C2` (centres unmarked) [Example 1-124], the IC50 under setting [1] is 0.05 to 0.2 µM.
On to `COc1ccc(NC(=O)C(CCC2CC2)NC(=O)c2ccc(NC3CCN(C)CC3)cc2)cn1` (centres unmarked) [Example 6-59], for which the IC50 under setting [1] was at least 0.2 µM.
Take `COc1ccc(NC(=O)C(CCC2CC2)NC(=O)c2ccc(Nc3ccncc3)cc2OC)cn1` (centres unmarked) [Example 6-79]: the IC50 under setting [1] was below 0.05 µM.
Consider `CCCCC(NC(=O)c1[nH]c2c(c1C)C(=O)CC(C)(C)C2)C(=O)NCc1ccc(CN2CCC(C)(C)CC2)cc1` (centres unmarked) [Example 18-13], for which the IC50 under setting [1] is below 0.05 µM.
With `CCCCC(NC(=O)c1[nH]c2c(c1C)C(=O)CC(C)(C)C2)C(=O)Nc1ccc(C(N)=O)cc1` (centres unmarked) [Example 20-1, N-[1-(4-carbamoylanilino)-1-oxohexan-2-yl]-3,6,6-trimethyl-4-oxo-5,7-dihydro-1H-indole-2-carboxamide], the IC50 under setting [1] is at least 0.2 µM.
As to `CCCCC(NC(=O)c1[nH]c2c(c1C)C(=O)CC(C)(C)C2)C(=O)Nc1nn(CC)c2ccccc12` (centres unmarked) [Example 1-97], the IC50 under setting [2] is at least 0.2 µM.
With `CCCCC(NC(=O)c1[nH]c2c(c1C)C(=O)CC(C)(C)C2)C(=O)NCc1ccccc1Cl` (centres unmarked) [Example 1-41], the IC50 under setting [2] is at least 0.2 µM.
Consider `Cc1c(C(=O)NC(C(=O)Nc2ccc(OC3CCN(C)CC3)nc2)c2ccccc2Cl)[nH]c2c1C(=O)CC(C)(C)C2` (centres unmarked) [Example 6-28], for which the IC50 under setting [1] is at least 0.2 µM.
Take `CCCCC(NC(=O)c1[nH]c2c(c1C)C(=O)CC(C)(C)C2)C(=O)Nc1cccc(CN2CCOCC2)c1` (centres unmarked) [Example 1-99]: under setting [2], the IC50 was at least 0.2 µM.
As for `CCCCC(NC(=O)c1[nH]c2c(c1C)C(=O)CC(C)(C)C2)C(=O)Nc1ccccc1SCC` (centres unmarked) [Example 1-16], the IC50 under setting [2] was in the range of 0.05 to 0.2 µM.
Take `Cc1c(C(=O)NC(CCC2CC2)c2nc3c(CN4CCN(C)CC4)cccc3n2C)[nH]c2c1C(=O)CC(C)(C)C2` (centres unmarked) [Example 31-6]: under setting [1], the IC50 was at least 0.2 µM.
Turning to `CCCCC(NC(=O)c1[nH]c2c(c1C)C(=O)CC(C)(C)C2)C(=O)Nc1cccc2c1CCNC2` (centres unmarked) [Example 25-1, 3,6,6-trimethyl-4-oxo-N-[1-oxo-1-(1,2,3,4-tetrahydroisoquinolin-5-ylamino)hexan-2-yl]-5,7-dihydro-1H-indole-2-carboxamide], the IC50 under setting [1] is at least 0.2 µM.
On to `CCCC[C@H](NC(=O)c1[nH]c2c(c1C)C(=O)CC1(CCOCC1)C2)C(=O)N[C@@H](C)c1ccccc1` [Example 6-44], for which, under setting [1], the IC50 was at least 0.2 µM.
For the compound `COc1ccc(NC(=O)C(CCC2CC2)NC(=O)c2ccc(CCCN(C)C)cc2)cn1` (centres unmarked) [Example 6-74], the IC50 under setting [1] lay in the range of 0.05 to 0.2 µM.
Regarding `CCCC[C@H](NC(=O)c1[nH]c2c(c1C)C(=O)CC(C)(C)C2)c1nc2ccc(OCCN3CCCCC3)cc2[nH]1` [Example 37-1, (S)-3,6,6-trimethyl-4-oxo-N-(1-(6-(2-(piperidin-1-yl)ethoxy)-1H-benzo[d]imidazol-2-yl)pentyl)-4,5,6,7-tetrahydro-1H-indole-2-carboxamide], under setting [1], the IC50 is at least 0.2 µM.
On the same count and under the same terms, under `CCCC[C@H](NC(=O)c1[nH]c2c(c1C)C(=O)CC(C)(C)C2)C(=O)NCc1ccc(N2CCN(CC)CC2)cc1` [Example 22-3] stands at least 0.2 µM; under `Cc1c(C(=O)NC(CCC2CC2)C(=O)Nc2ccc(F)nc2)[nH]c2c1C(=O)CC(C)(C)C2` (centres unmarked) [Example 6-12], 0.05 to 0.2 µM.
